Experimental data reported in ChEMBL document CHEMBL5252593, “Therapeutic significance of molecular hybrids for breast cancer research and treatment” (RSC Med Chem, 2023).
Values belong to the molecule of their own block, whether it stands above or below them.

Tests used:
[1] = test system: MDA-MB-231; experiment: Antiproliferative activity against human MDA-MB-231 cells assessed as inhibition of cell proliferation incubated for 24 hrs by MTT assay; assay type: functional, cell-based; conditions: MDA-MB-231, 24 h
[2] = test system: MCF7; experiment: Antiproliferative activity against human MCF7 cells assessed as inhibition of cell proliferation incubated for 24 hrs by MTT assay; assay type: functional, cell-based; conditions: MCF7, 24 h
[3] = test system: HEK293; experiment: Antiproliferative activity against human HEK293 cells assessed as inhibition of cell growth measured after 24 hrs by MTT assay; assay type: functional, cell-based; conditions: HEK293, 24 h
[4] = test system: MDA-MB-231; experiment: Antiproliferative activity against human MDA-MB-231 cells assessed as inhibition of cell growth by MTT assay; assay type: functional, cell-based
[5] = test system: MCF7; experiment: Antiproliferative activity against human MCF7 cells assessed as cell growth inhibition measured after 24 hrs by MTT assay; assay type: functional, cell-based; conditions: MCF7, 24 h
[6] = test system: HEK293; experiment: Antiproliferative activity against human HEK293 cells assessed as inhibition of cell proliferation measured after 24 hrs by MTT assay; assay type: functional, cell-based; conditions: HEK293, 24 h
[7] = test system: MCF7; experiment: Antiproliferative activity against human MCF7 cells assessed as reduction in cell viability measured after 24 hrs by MTT assay; assay type: functional, cell-based; conditions: MCF7, 24 h
[8] = test system: T47D; experiment: Antiproliferative activity against human T47D cells assessed as reduction in cell viability measured after 48 hrs by MTT assay; assay type: functional, cell-based
[9] = test system: MCF7; experiment: Antiproliferative activity against human MCF7 cells assessed as reduction in cell viability measured after 48 hrs by MTT assay; assay type: functional, cell-based; conditions: MCF7, 48 h
[10] = test system: C-33-A; experiment: Antiproliferative activity against human C-33-A cells assessed as reduction in cell viability measured after 48 hrs by MTT assay; assay type: functional, cell-based
[11] = test system: MDA-MB-231; experiment: Antiproliferative activity against human MDA-MB-231 cells assessed as reduction in cell viability measured after 48 hrs by MTT assay; assay type: functional, cell-based; conditions: MDA-MB-231, 48 h
[12] = test system: MDA-MB-361; experiment: Antiproliferative activity against human MDA-MB-361 cells assessed as reduction in cell viability measured after 48 hrs by MTT assay; assay type: functional, cell-based; conditions: MDA-MB-361, 48 h
[13] = test system: MDA-MB-231; experiment: Antiproliferative activity against human MDA-MB-231 cells assessed as reduction in cell viability measured after 24 hrs by MTT assay; assay type: functional, cell-based; conditions: MDA-MB-231, 24 h
[14] = test system: MDA-MB-231; experiment: Antiproliferative activity against human MDA-MB-231 cells assessed as inhibition of cell growth incubated for 72 hrs by Celltiter Glo assay; assay type: functional, cell-based; conditions: MDA-MB-231, 72 h
[15] = test system: MDA-MB-231; experiment: Antiproliferative activity against human MDA-MB-231 cells assessed as reduction in cell proliferation incubated for 48 hrs by MTT assay; assay type: functional, cell-based; conditions: MDA-MB-231, 48 h
[16] = Selectivity index, ratio of IC50 for antiproliferative activity against human MCF-10A cells to IC50 for antiproliferative activity against human MCF7 cells by MTT assay; assay type: toxicity, cell-based; conditions: MCF-10A cells versus MCF7 cells, read-out: Selectivity Index
[17] = test system: MCF-10A; experiment: Antiproliferative activity against human MCF-10A cells assessed as reduction in cell proliferation incubated for 48 hrs by MTT assay; assay type: functional, cell-based
[18] = test system: MCF7; experiment: Antiproliferative activity against Doxorubicin-resistant human MCF7 cells assessed as reduction in cell proliferation incubated for 48 hrs by MTT assay; assay type: functional, cell-based; conditions: MCF7, 48 h
[19] = test system: MCF7; experiment: Antiproliferative activity against human MCF7 cells assessed as reduction in cell proliferation incubated for 48 hrs by MTT assay; assay type: functional, cell-based; conditions: MCF7, 48 h
[20] = biological target: T1, Prostaglandin G/H synthase 2 (Homo sapiens) (UniProt P35354); experiment: Inhibition of COX-2 (unknown origin) at 50 uM by fluorescence based method relative to control
T1 sequence (whole entry): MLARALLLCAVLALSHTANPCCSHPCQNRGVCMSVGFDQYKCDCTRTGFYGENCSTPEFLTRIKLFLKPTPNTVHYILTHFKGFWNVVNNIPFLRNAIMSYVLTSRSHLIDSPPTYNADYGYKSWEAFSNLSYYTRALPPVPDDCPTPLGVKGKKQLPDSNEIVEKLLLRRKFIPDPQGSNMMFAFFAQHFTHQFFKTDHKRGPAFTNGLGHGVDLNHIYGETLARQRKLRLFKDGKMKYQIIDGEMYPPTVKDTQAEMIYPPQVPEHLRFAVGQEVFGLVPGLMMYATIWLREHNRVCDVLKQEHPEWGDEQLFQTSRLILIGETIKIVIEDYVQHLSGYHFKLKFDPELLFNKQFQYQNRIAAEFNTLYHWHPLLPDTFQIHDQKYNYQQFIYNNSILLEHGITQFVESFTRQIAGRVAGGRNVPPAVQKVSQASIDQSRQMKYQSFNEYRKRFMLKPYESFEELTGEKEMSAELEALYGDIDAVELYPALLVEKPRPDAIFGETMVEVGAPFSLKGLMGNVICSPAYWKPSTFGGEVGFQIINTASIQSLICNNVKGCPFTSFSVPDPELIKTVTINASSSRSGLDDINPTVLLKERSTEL

[21] = test system: MCF7; experiment: Antiproliferative activity against human MCF7 cells assessed as reduction in cell viability; assay type: functional, cell-based

Compound: Cc1ncc([N+](=O)[O-])n1Cc1cn(CCCCN2C(=O)C(=O)c3cc(Cl)ccc32)nn1
- IC50 [3]: 12.1 µM

Compound: C[C@H]1[C@@H](CC(=O)OC[C@H]2C[C@H]3[C@@H]4CCc5cc(OCc6ccccc6)ccc5[C@H]4CC[C@]3(C)[C@H]2O)OC2O[C@]3(C)CC[C@H]4[C@H](C)CC[C@@H]1[C@@]24OO3 (stereo partly drawn)
- EC50 [8]: 0.93 µM
- EC50 [9]: 0.45 µM
- EC50 [10]: 0.15 µM
- EC50 [11]: 0.86 µM
- EC50 [12]: 0.18 µM

Compound: CCO/N=C1/C(=O)N(CCCOC2O[C@@H]3O[C@@]4(C)CC[C@H]5[C@H](C)CC[C@@H]([C@H]2C)[C@@]35OO4)c2ccc(F)cc21 (stereo partly drawn)
- IC50 [15]: 23.9 µM
- selectivity ratio [16]: > 1.3
- IC50 [17]: > 100 µM
- IC50 [18]: 21.7 µM
- IC50 [19]: 20.7 µM

Compound: OC[C@H]1O[C@@H](Cc2cc(-c3c[nH]c4ccccc34)on2)[C@H](O)[C@@H](O)[C@@H]1O
- inhibition [20]: 95%
- IC50 [14]: 35.5 µM

Compound: COc1ccc2c3c([nH]c2c1)[C@]12CC(C)(C)[C@@]4(C(=O)N1CC3)c1[nH]c3cc(OC)ccc3c1CCN24
- IC50 [2]: 38.5 µM

Second part, led by results:

- IC50 [1]: > 100 µM
- IC50 [2]: 37.4 µM
Compound: CCOC(=O)[C@H]1Cc2c([nH]c3ccccc23)CN1Cc1cn(CCCN2C(=O)C(=O)c3ccccc32)nn1

- IC50 [4]: 48.5 µM
Compound: O=C1C(=O)N(CCn2cc(COCCOc3ccc(/C(=C(/CCCl)c4ccccc4)c4ccccc4)cc3)nn2)c2c(Br)cc(Br)cc21

- IC50 [5]: 62.2 µM
- IC50 [7]: 62.2 µM
Compound: COc1cccc(OC)c1C1CC(c2ccc(OCc3cn(CCCN4C(=O)c5cccc6cccc(c56)C4=O)nn3)cc2)=NN1C(C)=O (stereo not drawn)
- IC50 [6]: > 100 µM

- IC50 [13]: 22 µM
- IC50 [14]: 22.3 µM
Compound: CCOC(=O)[C@H]1Cc2c([nH]c3ccccc23)CN1Cc1cn(CCCCCOc2ccc(C(=O)/C=C/c3cc(OC)c(OC)c(OC)c3)cc2)nn1

- IC50 [21]: 10.3 µM
Compound: CCOC(=O)[C@H]1Cc2c([nH]c3ccccc23)CN1Cc1cn(CCCOc2ccc(C(=O)/C=C/c3ccc(F)cc3)cc2)nn1
